Key:
[1] = tested on: APP protein synthesis in primary human fetal astrocytes; assay: Intracellular APP protein synthesis, [35S]-methionine pulse labeling and immunoprecipitation, primary astrocytes; format: cell-based; conditions: 0.5 ng/ml, 16 hours, 30 minute [35S]-methionine labeling
Method: Primary human astrocytes were prepared by trypsinization of human fetal brain tissue by a previously described method (Das, et al., Neuron 14; 447 (1995)). Cells were seeded onto poly-L-lysine (10 μg/ml) coated plates and were grown to 70% confluence in DMEM medium, (low glucose) supplemented with 10% fetal bovine serum. In order to eliminate microglia, the cultures were treated with 5 mM H-Leu-O-methylester (Guilian, J. Neurosci. Res. 18:155 (1987)). For immunofluorescence, cells were replated at a density of 100,000 cells per 60-mm petri dish on poly-L-lysine coated glass coverslips and grown for 24 hours in 0.5 ml of medium to allow the cells to attach. The presence of glial fibrillary acidic protein (GFAP) was detected by immunofluorescent staining of formaldehyde fixed cells using a 1:10 dilution of rabbit IgG1 antibody specific for human GFAP. Primary GFAP-specific antibody was added to the coverslips for 30 minutes at room temperature in phosphate buffered saline and 10% goat serum. […] Fluorescence microscopy scored the cells used in the metabolic experiments as 95% pure astrocytes. […]
Intracellular APP protein synthesis was determined in primary astrocytes after plating cells in equal numbers into 8 microtiter wells prior to each treatment (1×10^5 cells per well in 96 well dishes). […]

APP-mRNA = assay: Northern blot of APP-mRNA, astrocytoma cells; format: cell-based, human; conditions: average of four Northern blot experiments
Method: Total RNA (10 μg) was extracted from primary astrocytes and astrocytoma cells with a RNA-STAT kit (Tel-Test). RNA samples were denatured in 50% formamide/2.2 M formaldehyde/20 mM MOPS/5 mM sodium acetate/0.5 mM EDTA, pH 7.4, at 60° C. for 10 minutes, electrophoresed on 1.0% agarose-formaldehyde gels, blotted onto Hybond-N filters and immobilized by UV crosslinking and heating filters to 80° C. Filters were prehybridized for 3 hours and hybridized overnight in a solution consisting of 50% formamide, […] denatured salmon sperm DNA, 5×SSC, 0.1% sodium dodecyl sulfate and 5×Denhardt's solution. Following hybridization, filters were washed twice for a total of 1 hour in 2×SSC/0.2% sodium dodecyl sulfate at room temperature and twice each for a total of 1 hour in 0.5×SSC/0.1% sodium dodecyl sulfate at 55° C. Equal loading was verified by ethidium bromide staining, non-specific hybridization of the ACT probe to the 28S rRNA, and by standardized hybridization to the GAPDH cDNA probe as an internal standard. The APP cDNA probe corresponded to the unique internal 1 kb fragment gel purified from the 3 kb APP cDNA (Kang et al. Nature 325: 733 (1987)), the ACT cRNA probe to a PstI/SacI fragment (536-943) in the human ACT cDNA (Chandra, et al., Biochemistry 22: 5055 (1983)) and the GAPDH probe to the human GAPDH gene (Tokunaga, et al., Cancer Res. 47: 5616 (1987)).

## interleukin-1α [IL-1α]
[1]
  increase in the synthesis of intracellular APP: 4 fold

## interleukin-1β [IL-1β]
[1]
  increase in the synthesis of intracellular APP: 3 fold
APP-mRNA
  increase in steady-state levels of APP-mRNAs standardized to GAPDH-mRNA: 30%

Reference: patent US6849405B2, “Translation enhancer element of the human amyloid precursor protein gene” (The Brigham and Women's Hospital, Inc., priority 1997, dated 2005)
